Read-outs that look alike come from different tables or passages of the source.
Experiments:
physchem = conditions: pH 6, aqueous buffer
[1] = not told
[2] = In vitro membrane permeation test, Drug 6 (Example 7); assay type: physicochemical; conditions: Drug 6, feed solution 0.5% NaTC/POPC, permeate 60 wt % decanol in decane
Description: Dispersion 19 (75:25 Drug 6:Polymer 17) was evaluated in vitro using the membrane permeation test described for Example 6, except that the permeate solution consisted of 60 wt % decanol in decane. The feed solution was made using MFD solution (0.5% NaTC/POPC). The concentration of Drug 6 in the feed solution would have been 500 μg/mL (354 μgA/mL), if all of the drug had dissolved.
As a control, crystalline Drug 6 alone was used. The concentration of drug added would have been 354 μgA/mL Drug 6, if all of the drug had dissolved.
The maximum flux of drug across the membrane (in units of μg/cm^2-min) was determined from the data by estimating the tangent to the concentration versus time curve at time 0.

[3] = Microcentrifuge dissolution test in PBS with NaTC/POPC, Drug 6 (Examples 8 and 12); assay type: physicochemical; conditions: 37° C., 0 to 90 minutes
Description: Dispersion 19 was also evaluated in a microcentrifuge dissolution test using the following procedures. For this test, 1.7 mg of Dispersion 19 and 1.27 mg of Crystalline Drug 6 was added to respective microcentrifuge tubes. The tubes were placed in a 37° C. temperature-controlled bath, and 1.8 mL phosphate buffered saline (PBS) at pH 6.5 and 290 mOsm/kg containing 7.3 mM sodium taurocholic acid and 1.4 mM of 1-palmitoyl-2-oleyl-sn-glycero-3-phosphocholine was added to each tube. The concentration of Drug 6 would have been […] if all of the drug had dissolved. The samples were quickly mixed using a vortex mixer for about 60 seconds. The samples were centrifuged at 13,000 G at 37° C. for 1 minute. The resulting supernatant solutions were then sampled and diluted 1:6 (by volume) with methanol and then analyzed by high-performance liquid chromatography (HPLC). The contents of the tubes were mixed on the vortex mixer and allowed to stand undisturbed at 37° C. until the next sample was taken. Samples were collected at 4, 10, 20, 40, 90, and 1200 minutes.
The concentrations of Drug 6 obtained in these samples were used to determine the values of the maximum drug concentration between 0 and 90 minutes (MDC90) and the area under the curve from 0 to 90 minutes (AUC90).
A physical mixture of 75 wt % Drug 6 and 25 wt % HPMCA Polymer 16 was evaluated using the microcentrifuge dissolution test described in Example 8. The concentration of Drug 6 would have been 500 μgA/mL if all of the drug had dissolved. A control consisting of a physical mixture of 75 wt % Drug 6 and 25 wt % HPMC (Dow E3 Prem LV) was tested in the same test.

[4] = In vivo test of oral powder for constitution in beagle dogs (Example 2); conditions: male, dog, plasma, Fed, 90 mgA Drug 1 oral OPC
Description: Dispersions 1 and 4 were used as oral powders for constitution (OPC) for evaluating the performance of the dispersions in in vivo tests using male beagle dogs. The OPC was dosed as a suspension in a solution containing 0.5 wt % hydroxypropyl cellulose METHOCEL® (from Dow Chemical Co.), and was prepared as follows. First, 7.5 g of METHOCEL® was weighed out and added slowly to approximately 490 ml of water at 90-100° C. to form a METHOCEL® suspension. After all the METHOCEL® was added, 1000 mL of cool/room temperature water was added to the suspension, which was then placed in an ice water bath. When all of the METHOCEL® had dissolved, 2.55 g of polyoxyethylene 20 sorbitan monooleate (TWEEN 80) were added and the mixture stirred until the TWEEN 80 had dissolved, thus forming a stock suspension solution.
To form the OPC, sufficient quantity of the test composition to result in a 90 mgA amount of Drug 1 was accurately weighed and placed into a mortar. (“mgA” refers to mg of active drug.) A 20 mL quantity of the stock suspension solution was added to the mortar and the test composition was mixed with a pestle. Additional METHOCEL® suspension was added gradually with mixing until a total of 400 mL of the stock suspension solution had been added to the mortar. The suspension was then transferred to a flask, thus forming the OPC. This process was repeated for each of Dispersions 1 and 4. […]

[5] = In vivo test of oral powder for constitution in beagle dogs (Example 10); conditions: male, dog, plasma, Fed, 90 mgA Drug 1 oral OPC
Description: Dispersion 17, consisting of 50:50 Drug 1:HPMCA Polymer 10, was dosed in male beagle dogs as an oral powder for constitution (OPC), by suspending the dispersion in a solution containing 0.5 wt % hydroxypropyl cellulose METHOCEL® (from Dow Chemical Co.), as follows. First, 7.5 g of METHOCEL® was weighed out and added slowly to approximately 490 ml of water at 90-100° C. to form a METHOCEL® suspension. After all the METHOCEL® was added, 1000 mL of cool/room temperature water was added to the suspension, which was then placed in an ice water bath. When all of the METHOCEL® had dissolved, 2.55 g of polyoxyethylene 20 sorbitan monooleate (TWEEN 80) were added and the mixture stirred until the TWEEN 80 had dissolved, thus forming a stock suspension solution.
To form the OPC, sufficient quantity of the test composition to result in a 90 mgA amount of Drug 1 was accurately weighed and placed into a mortar. A 20 mL quantity of the stock suspension solution was added to the mortar and the test composition was mixed with a pestle. Additional METHOCEL® suspension was added gradually with mixing until a total of 400 mL of the stock suspension solution had been added to the mortar. The suspension was then transferred to a flask, thus forming the OPC. In addition, an OPC containing 90 mgA of amorphous Drug 1 was prepared using the same procedure.
Six male beagle dogs were each dosed with the OPC. […]

[6] = Table 16, PBS pH 6.5 with 7.3 mM NaTC/1.4 mM POPC
[7] = Table 20, PBS pH 6.5 with NaTC/POPC

Compound CCCc1nn(C)c2c(=O)[nH]c(-c3cc(S(=O)(=O)N4CCN(C)CC4)ccc3OCC)nc12.O=C(O)CC(O)(CC(=O)O)C(=O)O [Drug 6, 1-[4-ethoxy-3-(6,7-dihydro-1-methyl-7-oxo-3-propyl-1H-pyrazolo[4,3-d]pyrimidin-5-yl)phenylsulphonyl]-4-methylpiperazine citrate salt] has a solubility (physchem) of roughly 20 µg/mL.

With “[2R,4S]4-[(3,5-bis-trifluoromethyl-benzyl)-methoxycarbonyl-amino]-2-ethyl-6-trifluoromethyl-3,4-dihydro-2H-quinoline-1-carboxylic acid ethyl ester [Crystalline Drug 1]” the “Maximum Drug Flux” value [1] was 0.16 μg/cm^2-min.

For CCCc1nn(C)c2c(=O)[nH]c(-c3cc(S(=O)(=O)N4CCN(C)CC4)ccc3OCC)nc12.O=C(O)CC(O)(CC(=O)O)C(=O)O [Crystalline Drug 6, 1-[4-ethoxy-3-(6,7-dihydro-1-methyl-7-oxo-3-propyl-1H-pyrazolo[4,3-d]pyrimidin-5-yl)phenylsulphonyl]-4-methylpiperazine citrate salt], the “Maximum Drug Flux” value [2] was 3.8 μg/cm^2-min, the AUC90 [3, 6] was 7,000 min * μgA/mL and the MDC,90 [3, 6] was 98 μgA/mL. The AUC90 [3, 7] was 7,000 min * μgA/mL and the MDC,90 [3, 7] was 98 μgA/mL.

CCOC(=O)N1c2ccc(C(F)(F)F)cc2[C@@H](N(Cc2cc(C(F)(F)F)cc(C(F)(F)F)c2)C(=O)OC)C[C@H]1CC [Amorphous Drug 1, [2R,4S]4-[(3,5-bis-trifluoromethyl-benzyl)-methoxycarbonyl-amino]-2-ethyl-6-trifluoromethyl-3,4-dihydro-2H-quinoline-1-carboxylic acid ethyl ester] showed a Cmax [4] of 190 ± 55 ng/mL, an AUC(0-t) ([4]; read-out: AUC(0-12)) of 640 ± 240 ng·h/mL and a Cmax [5] of 190 ± 55 ng/mL. The AUC(0-t) ([5]; read-out: AUC(0-12)) was 640 ± 240 ng·h/mL.

Reference: patent US8940800B2, “Pharmaceutical compositions with enhanced performance” (Bend Research, Inc., priority 2004, dated 2015)
